Experimental data from patent publication US10597388B2, “Pyridazinone herbicides” (FMC CORPORATION, priority 2014, dated 2020).

Experiments:
Experiment in all cases: Test C greenhouse herbicide test, pre- and postemergence
Format in all cases: in vivo
[1] = test system: corn (Zea mays)
How it was run: (§1)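 Seeds sown in loam–sand blend treated preemergence; plants in peat-based medium sprayed postemergence at 2–18 cm (1- to 4-leaf stage); chemicals in non-phytotoxic solvent with surfactant. Greenhouse 13–15 d, then visual rating versus controls on 0–100 scale (0 no effect, 100 complete control).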

[2] = test system: ryegrass, Italian (Italian ryegrass, Lolium multiflorum)
How it was run: as §1

[3] = test system: galium (catchweed bedstraw, Galium aparine)
How it was run: as §1

[4] = test system: barnyardgrass (Echinochloa crus-galli)
How it was run: as §1

[5] = test system: soybean (Glycine max)
How it was run: as §1

[6] = test system: velvetleaf (Abutilon theophrasti)
How it was run: as §1

[7] = test system: foxtail, giant (giant foxtail, Setaria faberii)
How it was run: as §1

[8] = test system: wheat (winter wheat, Triticum aestivum)
How it was run: as §1

[9] = test system: crabgrass, large (large crabgrass, Digitaria sanguinalis)
How it was run: as §1

[10] = test system: blackgrass (Alopecurus myosuroides)
How it was run: as §1

[11] = test system: nutsedge, yellow (yellow nutsedge, Cyperus esculentus)
How it was run: as §1

[12] = test system: johnsongrass (Sorghum halepense)
How it was run: as §1

[13] = Postemergence, 31 g ai/ha, scale 0 to 100 (0 no effect, 100 complete control)
[14] = Postemergence, 62 g ai/ha, 0 to 100 scale (0 no effect, 100 complete control)
[15] = Postemergence, 250 g ai/ha, scale 0 to 100, 0 no effect, 100 complete control, 13 to 15 d
[16] = Preemergence, 31 g ai/ha, scale 0 to 100, 0 is no effect, 100 is complete control
[17] = Preemergence, 62 g ai/ha, scale 0 to 100, 0 is no effect, 100 is complete control
[18] = Preemergence, 125 g ai/ha, scale 0 to 100, 0 is no effect, 100 is complete control
[19] = Preemergence, 250 g ai/ha, scale 0 to 100, 0 no effect, 100 complete control
[20] = postemergence, 125 g ai/ha, scale 0 to 100, 0 no effect, 100 complete control

COC(=O)Oc1c(C)nn(C)c(=O)c1-c1ccc(Br)c2ccccc12 [Compound 145]
Plant response rating, Corn [1, 13]: 10 | Corn plant response rating [1, 14]: 5 | Plant response rating, Corn [1, 15]: 10 | Plant response rating, Corn [1, 16]: 0 | Plant response rating, Corn [1, 17]: 0 | Plant response rating, Corn [1, 18]: 0 | Corn plant response rating [1, 19]: 15 | Corn plant response rating [1, 20]: 5 | Plant response rating, Ryegrass, Italian [2, 13]: 5 | Ryegrass, Italian plant response rating [2, 14]: 15 | Plant response rating, Ryegrass, Italian [2, 15]: 40 | Plant response rating, Ryegrass, Italian [2, 16]: 100 | Plant response rating, Ryegrass, Italian [2, 17]: 100 | Plant response rating, Ryegrass, Italian [2, 18]: 100 | Ryegrass, Italian plant response rating [2, 19]: 100 | Ryegrass, Italian plant response rating [2, 20]: 30 | Plant response rating, Galium [3, 13]: 90 | Galium plant response rating [3, 14]: 95 | Plant response rating, Galium [3, 15]: 100 | Plant response rating, Galium [3, 16]: 90 | Plant response rating, Galium [3, 17]: 98 | Plant response rating, Galium [3, 18]: 100 | Galium plant response rating [3, 19]: 98 | Galium plant response rating [3, 20]: 98 | Plant response rating, Barnyardgrass [4, 13]: 20 | Barnyardgrass plant response rating [4, 14]: 15 | Plant response rating, Barnyardgrass ([4]; Postemergence, 125 g ai/ha, scale 0 to 100, 0 is no effect, 100 is complete control): 30 | Plant response rating, Barnyardgrass [4, 15]: 70 | Plant response rating, Barnyardgrass [4, 16]: 10 | Plant response rating, Barnyardgrass [4, 17]: 35 | Plant response rating, Barnyardgrass [4, 18]: 75 | Barnyardgrass plant response rating [4, 19]: 95 | Plant response rating, Soybean [5, 13]: 40 | Soybean plant response rating [5, 14]: 40 | Plant response rating, Soybean [5, 15]: 70 | Plant response rating, Soybean [5, 16]: 0 | Plant response rating, Soybean [5, 17]: 55 | Plant response rating, Soybean [5, 18]: 75 | Soybean plant response rating [5, 19]: 80 | Soybean plant response rating [5, 20]: 55 | Plant response rating, Velvetleaf [6, 13]: 85 | Velvetleaf plant response rating [6, 14]: 90 | Plant response rating, Velvetleaf [6, 15]: 100 | Plant response rating, Velvetleaf [6, 16]: 40 | Plant response rating, Velvetleaf [6, 17]: 85 | Plant response rating, Velvetleaf [6, 18]: 95 | Velvetleaf plant response rating [6, 19]: 100 | Velvetleaf plant response rating [6, 20]: 98 | Plant response rating, Foxtail, Giant [7, 13]: 20 | Foxtail, Giant plant response rating [7, 14]: 25 | Plant response rating, Foxtail, Giant [7, 15]: 55 | Plant response rating, Foxtail, Giant [7, 16]: 35 | Plant response rating, Foxtail, Giant [7, 17]: 60 | Plant response rating, Foxtail, Giant [7, 18]: 75 | Foxtail, Giant plant response rating [7, 19]: 95 | Foxtail, Giant plant response rating [7, 20]: 25 | Plant response rating, Wheat [8, 13]: 40 | Wheat plant response rating [8, 14]: 50 | Plant response rating, Wheat [8, 15]: 90 | Plant response rating, Wheat [8, 16]: 0 | Plant response rating, Wheat [8, 17]: 0 | Plant response rating, Wheat [8, 18]: 0 | Wheat plant response rating [8, 19]: 5 | Wheat plant response rating [8, 20]: 85 | Plant response rating, Crabgrass, Large [9, 13]: 15 | Crabgrass, Large plant response rating [9, 14]: 10 | Plant response rating, Crabgrass, Large [9, 15]: 20 | Plant response rating, Crabgrass, Large [9, 16]: 5 | Plant response rating, Crabgrass, Large [9, 17]: 50 | Plant response rating, Crabgrass, Large [9, 18]: 55 | Crabgrass, Large plant response rating [9, 19]: 55 | Crabgrass, Large plant response rating [9, 20]: 10 | Plant response rating, Blackgrass [10, 13]: 5 | Blackgrass plant response rating [10, 14]: 0 | Plant response rating, Blackgrass [10, 15]: 90 | Plant response rating, Blackgrass [10, 16]: 10 | Plant response rating, Blackgrass [10, 17]: 30 | Plant response rating, Blackgrass [10, 18]: 60 | Blackgrass plant response rating [10, 19]: 60 | Blackgrass plant response rating [10, 20]: 30 | Plant response rating, Nutsedge, Yellow [11, 13]: 70 | Nutsedge, Yellow plant response rating [11, 14]: 90 | Plant response rating, Nutsedge, Yellow [11, 15]: 95 | Plant response rating, Nutsedge, Yellow [11, 16]: 35 | Plant response rating, Nutsedge, Yellow [11, 17]: 85 | Plant response rating, Nutsedge, Yellow [11, 18]: 95 | Nutsedge, Yellow plant response rating [11, 19]: 90 | Nutsedge, Yellow plant response rating [11, 20]: 85 | Plant response rating, Johnsongrass [12, 13]: 10 | Johnsongrass plant response rating [12, 14]: 10 | Plant response rating, Johnsongrass [12, 15]: 20 | Plant response rating, Johnsongrass [12, 16]: 10 | Plant response rating, Johnsongrass [12, 17]: 5 | Plant response rating, Johnsongrass [12, 18]: 5 | Johnsongrass plant response rating [12, 19]: 5 | Johnsongrass plant response rating [12, 20]: 20

CC(=O)Oc1c(Cl)nn(C)c(=O)c1-c1c(C)sc2ccc(C(F)(F)F)cc12 [Compound 152]
Plant response rating, Corn [1, 16]: 15 | Plant response rating, Corn [1, 17]: 10 | Plant response rating, Corn [1, 18]: 10 | Corn plant response rating [1, 19]: 15 | Plant response rating, Ryegrass, Italian [2, 16]: 10 | Plant response rating, Ryegrass, Italian [2, 17]: 50 | Plant response rating, Ryegrass, Italian [2, 18]: 90 | Ryegrass, Italian plant response rating [2, 19]: 90 | Plant response rating, Galium [3, 16]: 50 | Plant response rating, Galium [3, 17]: 45 | Plant response rating, Galium [3, 18]: 95 | Galium plant response rating [3, 19]: 100 | Plant response rating, Barnyardgrass [4, 16]: 5 | Plant response rating, Barnyardgrass [4, 17]: 5 | Plant response rating, Barnyardgrass [4, 18]: 30 | Barnyardgrass plant response rating [4, 19]: 70 | Plant response rating, Soybean [5, 16]: 0 | Plant response rating, Soybean [5, 17]: 5 | Plant response rating, Soybean [5, 18]: 5 | Soybean plant response rating [5, 19]: 10 | Plant response rating, Velvetleaf [6, 16]: 15 | Plant response rating, Velvetleaf [6, 17]: 40 | Plant response rating, Velvetleaf [6, 18]: 65 | Velvetleaf plant response rating [6, 19]: 75 | Plant response rating, Foxtail, Giant [7, 16]: 0 | Plant response rating, Foxtail, Giant [7, 17]: 35 | Plant response rating, Foxtail, Giant [7, 18]: 65 | Foxtail, Giant plant response rating [7, 19]: 90 | Plant response rating, Wheat [8, 16]: 0 | Plant response rating, Wheat [8, 17]: 10 | Plant response rating, Wheat [8, 18]: 25 | Wheat plant response rating [8, 19]: 85 | Plant response rating, Crabgrass, Large [9, 16]: 0 | Plant response rating, Crabgrass, Large [9, 17]: 0 | Plant response rating, Crabgrass, Large [9, 18]: 10 | Crabgrass, Large plant response rating [9, 19]: 10 | Plant response rating, Blackgrass [10, 16]: 5 | Plant response rating, Blackgrass [10, 17]: 5 | Plant response rating, Blackgrass [10, 18]: 30 | Blackgrass plant response rating [10, 19]: 35 | Plant response rating, Nutsedge, Yellow [11, 16]: 5 | Plant response rating, Nutsedge, Yellow [11, 17]: 20 | Plant response rating, Nutsedge, Yellow [11, 18]: 55 | Nutsedge, Yellow plant response rating [11, 19]: 85 | Plant response rating, Johnsongrass [12, 16]: 0 | Plant response rating, Johnsongrass [12, 17]: 0 | Plant response rating, Johnsongrass [12, 18]: 0 | Johnsongrass plant response rating [12, 19]: 5
